Assay results: PMC8317065, “UPLC-MS/MS Method for Analysis of Endocannabinoid and Related Lipid Metabolism in Mouse Mucosal Tissue” (Frontiers in Physiology, 2021)

Tested on: DGL
Assay: DGL (MAG biosynthetic enzyme) activity assay, UPLC-MS/MS, jejunum epithelium protein isolates
Assay type: biochemical, mouse
Settings: jejunum epithelium protein 50 μg
Experimental: Homogenized samples were centrifuged at 800 × g for 15 m at 4°C. The supernatant was collected in a 2.0 mL centrifuge tube and sonicated twice for 10 s. Samples underwent two sequential freeze thaw cycles using liquid N2. Samples were again centrifuged at 800 × g, 15 min, 4°C and the supernatant was collected. Total protein was then quantified via BCA assay and normalized between all samples. Protein isolations for each assay and each tissue were performed separately.
Substrate solutions were prepared by drying stock 19:2 DAG (20 nmol/reaction) under N2 steam (99.998% pure) and reconstituted in a solution of 50 mM Tris–HCl with 0.2% Triton x-100 (pH = 7.0). This solution was bath sonicated for 60 min at room temperature while protein samples were prepared. […] The products of the reaction were extracted via lipid extraction methods (see section “Lipid Extraction for Enzyme Assays”) and quantified via UPLC-MS/MS (see section “Quantitation of MAG Biosynthetic Enzyme Activity Assay Products”).
Lipids were extracted using liquid-liquid extraction with chloroform (2.0 mL) followed by 0.8 mL 0.2-micron ultra-purified water. […] Products were detected and quantified via UPLC-MS/MS techniques (see section “UPLC-MS/MS Detection of Analytes”). […]

- DGL activity (normalized response) (highest inhibitor concentration of range (1,000 nM)): 20.39 ± 6.65%
- DGL activity (normalized response) (lowest inhibitor concentration of range (3 nM)): 108.85 ± 6.19%
Structure (SMILES): CCCCCCCCCCC[C@@H](C[C@@H]1OC(=O)[C@H]1CCCCCC)OC(=O)[C@H](CC(C)C)NC=O [THL, tetrahydrolipstatin]
